In ChEMBL document CHEMBL5550222, “Synthesis and Biological Evaluation of Novel Psidium Meroterpenoid Derivatives against Cisplatin-Induced Acute Kidney Injury” (J Med Chem, 2024):
Active and inactive are the calls of the source. No cut-off for these calls is given here.

What was measured:
HK-2 [1] = assay: Induction of autophagy in human HK-2 cells assessed as upregulation of LC3II expression at 2.5 to 10 uM by Western blotting analysis; assay type: functional, cell-based; settings: dose 2.5-10 µM
HK-2 [2] = assay: Upregulation of ATP7A mRNA level in human HK-2 cells at 2.5 to 10 uM by RT-qPCR analysis; assay type: functional, cell-based; settings: dose 2.5-10 µM
HK-2 [3] = assay: Protection against cisplatin-induced nephrotoxicity in human HK-2 cells assessed as cell viability at 10 uM preincubated with compound for 2 hrs followed by cisplatin induction and measured after 72 hrs by MTT assay (reference value: 45.1 +/- 3.2%); assay type: functional; settings: time 74 hrs, read-out: Activity
HK-2 [4] = assay: Protection against cisplatin-induced nephrotoxicity in human HK-2 cells preincubated with compound for 2 hrs followed by cisplatin induction and measured after 72 hrs by MTT assay; assay type: functional, cell-based; settings: dose 1-10 µM, time 74.0 hrs
HK-2 [5] = assay: Protection against cisplatin-induced nephrotoxicity in human HK-2 cells assessed as cell viability at 5 uM preincubated with compound for 2 hrs followed by cisplatin induction and measured after 72 hrs by MTT assay (reference value: 45.1 +/- 3.2%); assay type: functional; settings: time 74 hrs, read-out: Activity
HK-2 [6] = assay: Protection against cisplatin-induced apoptosis in human HK-2 cells assessed as reduction in BAX expression preincubated with compound for 2 hrs followed by cisplatin induction and measured after 48 hrs by Western blotting analysis; assay type: functional, cell-based; settings: dose 2.5-10 µM, time 50.0 hrs
HK-2 [7] = assay: Protection against cisplatin-induced nephrotoxicity in human HK-2 cells increase in viability at 10 uM preincubated with compound for 2 hrs followed by cisplatin induction and measured after 72 hrs by MTT assay (reference value: 45.1%); assay type: functional; settings: time 74 hrs
[8] = Cytotoxicity against human HK-2 cells incubated for 72 hrs by MTT assay; assay type: toxicity, cell-based
HK-2 [9] = assay: Protection against cisplatin-induced nephrotoxicity in human HK-2 cells at 5 to 10 uM preincubated with compound for 2 hrs followed by cisplatin induction and measured after 72 hrs by MTT assay; assay type: functional, cell-based; settings: dose 5-10 µM, time 74.0 hrs
HCT-116 = assay: Cytotoxicity against human HCT-116 cells; assay type: functional, cell-based
[10] = AUC (0 to t) in ICR mouse 50 mg/kg, po measured for 24 hrs by HPLC-MS analysis; assay type: ADME, organism-based; settings: in vivo
[11] = Acute toxicity in C57BL/6J mouse assessed as lung damage at 1 g/Kg, po measured for 2 weeks by H and E staining based analysis; assay type: organism-based; settings: in vivo, 1000 mg/kg, 336 h
[12] = MRT (0 to infinity) in ICR mouse 1 mg/kg, iv measured for 24 hrs by HPLC-MS analysis; assay type: ADME, organism-based; settings: in vivo
[13] = Cmax in ICR mouse 1 mg/kg, iv measured for 24 hrs by HPLC-MS analysis; assay type: ADME, organism-based; settings: in vivo
Mus musculus [14] = assay: Protection against cisplatin-induced nephrotoxicity in C57BL6/J mouse assessed as reduction in SCR level in kidney at 100 mg/kg, po preadministered with compound for 2 days followed by cisplatin addition on day 3 and measured 72 hrs post cisplatin administration; assay type: functional, organism-based; settings: time 5.0 day
[15] = Clearance in ICR mouse 1 mg/kg, iv measured for 24 hrs by HPLC-MS analysis; assay type: ADME, organism-based; settings: in vivo
[16] = Acute toxicity in C57BL/6J mouse assessed as stomach damage at 1 g/Kg, po measured for 2 weeks by H and E staining based analysis; assay type: organism-based; settings: in vivo, 1000 mg/kg, 336 h
HK-2 [17] = assay: Protection against cisplatin-induced nephrotoxicity in human HK-2 cells at 1 to 10 uM preincubated with compound for 2 hrs followed by cisplatin induction and measured after 72 hrs by MTT assay; assay type: functional, cell-based; settings: dose 1-10 µM, time 74.0 hrs
[18] = Oral bioavailability in ICR mouse 50 mg/kg measured for 24 hrs by HPLC-MS analysis; assay type: ADME, organism-based; settings: in vivo
[19] = Cmax in ICR mouse 50 mg/kg, po measured for 24 hrs by HPLC-MS analysis; assay type: ADME, organism-based; settings: in vivo
[20] = Volume of distribution in ICR mouse 1 mg/kg, iv measured for 24 hrs by HPLC-MS analysis; assay type: ADME, organism-based; settings: in vivo
[21] = Acute toxicity in C57BL/6J mouse assessed as spleen damage at 1 g/Kg, po measured for 2 weeks by H and E staining based analysis; assay type: organism-based; settings: in vivo, 1000 mg/kg, 336 h
[22] = Acute toxicity in C57BL/6J mouse assessed as ovary damage at 1 g/Kg, po measured for 2 weeks by H and E staining based analysis; assay type: organism-based; settings: in vivo, 1000 mg/kg, 336 h
[23] = MRT (0 to infinity) in ICR mouse 50 mg/kg, po measured for 24 hrs by HPLC-MS analysis; assay type: ADME, organism-based; settings: in vivo
[24] = Acute toxicity in C57BL/6J mouse assessed as animal death at 1 g/Kg, po measured for 2 weeks; assay type: organism-based; settings: in vivo, 1000 mg/kg, 336 h
[25] = Acute toxicity in C57BL/6J mouse assessed as brain damage at 1 g/Kg, po measured for 2 weeks by H and E staining based analysis; assay type: organism-based; settings: in vivo, 1000 mg/kg, 336 h
[26] = AUC (0 to t) in ICR mouse 1 mg/kg, iv measured for 24 hrs by HPLC-MS analysis; assay type: ADME, organism-based; settings: in vivo
[27] = Terminal half life in ICR mouse 1 mg/kg, iv measured for 24 hrs by HPLC-MS analysis; assay type: ADME, organism-based; settings: in vivo, read-out: beta t1/2 (converted)
[28] = Acute toxicity in C57BL/6J mouse assessed as small intestine damage at 1 g/Kg, po measured for 2 weeks by H and E staining based analysis; assay type: organism-based; settings: in vivo, 1000 mg/kg, 336 h
[29] = AUC (0 to infinity) in ICR mouse 1 mg/kg, iv measured for 24 hrs by HPLC-MS analysis; assay type: ADME, organism-based; settings: in vivo
Mus musculus [30] = assay: Protection against cisplatin-induced nephrotoxicity in C57BL6/J mouse assessed as reduction in BUN level in kidney at 100 mg/kg, po preadministered with compound for 2 days followed by cisplatin addition on day 3 and measured 72 hrs post cisplatin administration; assay type: functional, organism-based; settings: time 5.0 day
[31] = Acute toxicity in C57BL/6J mouse assessed as abnormal behavior at 1 g/Kg, po measured for 2 weeks; assay type: organism-based; settings: in vivo, 1000 mg/kg, 336 h
[32] = AUC (0 to infinity) in ICR mouse 50 mg/kg, po measured for 24 hrs by HPLC-MS analysis; assay type: ADME, organism-based; settings: in vivo
[33] = MRT (0 to t) in ICR mouse 50 mg/kg, po measured for 24 hrs by HPLC-MS analysis; assay type: ADME, organism-based; settings: in vivo
[34] = Acute toxicity in C57BL/6J mouse assessed as liver damage at 1 g/Kg, po measured for 2 weeks by H and E staining based analysis; assay type: organism-based; settings: in vivo, 1000 mg/kg, 336 h
[35] = Terminal half life in ICR mouse 50 mg/kg, po measured for 24 hrs by HPLC-MS analysis; assay type: ADME, organism-based; settings: in vivo, read-out: beta t1/2 (converted)
[36] = Acute toxicity in C57BL/6J mouse assessed as heart damage at 1 g/Kg, po measured for 2 weeks by H and E staining based analysis; assay type: organism-based; settings: in vivo, 1000 mg/kg, 336 h
[37] = Acute toxicity in C57BL/6J mouse assessed as kidney damage at 1 g/Kg, po measured for 2 weeks by H and E staining based analysis; assay type: organism-based; settings: in vivo, 1000 mg/kg, 336 h
[38] = MRT (0 to t) in ICR mouse 1 mg/kg, iv measured for 24 hrs by HPLC-MS analysis; assay type: ADME, organism-based; settings: in vivo

COc1c(C=O)c(OC)c(C(=O)c2ccccc2)c2c1CC1CC/C(C)=C/CC(C)(C)/C=C/CC1(C)O2 (stereo not drawn)
Activity (HK-2 [1]): Active | Activity (HK-2 [2]): Active | viability at 10 µM (HK-2 [3]): 90.6% | Activity (HK-2 [4]): Dose-Dependent Effect | viability at 5 µM (HK-2 [5]): 82.8% | Activity (HK-2 [6]): Dose-Dependent Effect | Activity (HK-2 [7]): >90% | IC50 at 72 h [8]: > 10 µM | Activity (HK-2 [9]): Active | Activity (HCT-116): Active

COc1c(CO)c(OC)c(C(=O)c2ccccc2)c2c1C[C@H]1CC/C(C)=C/CC(C)(C)/C=C/C[C@]1(C)O2
AUC(0-t) at 24 h [10]: 783 ng·h/mL | Activity [11]: Non-Toxic | Activity (HK-2 [1]): Active | Activity (HK-2 [2]): Active | MRT inf [12]: 2.22 h | Cmax [13]: 485 ng/mL | Activity (Mus musculus [14]): Active | clearance [15]: 114 mL/min/kg | Activity [16]: Non-Toxic | Activity (HK-2 [17]): Active | bioavailability [18]: 11.9% | Cmax [19]: 266 ng/mL | Vd [20]: 24.4 L/kg | Activity [21]: Non-Toxic | Activity [22]: Non-Toxic | MRT inf [23]: 3.21 h | Activity (HK-2 [6]): Dose-Dependent Effect | Activity [24]: Non-Toxic | Activity [25]: Non-Toxic | AUC(0-t) at 24 h [26]: 137 ng·h/mL | half-life [27]: 2.47 h | Activity [28]: Non-Toxic | AUC(0-inf) [29]: 146 ng·h/mL | Activity (Mus musculus [30]): Active | Activity [31]: Non-Toxic | AUC(0-inf) [32]: 869 ng·h/mL | MRT last at 24 h [33]: 2.29 h | Activity [34]: Non-Toxic | half-life [35]: 2.5 h | Activity [36]: Non-Toxic | Activity [37]: Non-Toxic | Activity (HCT-116): Active | MRT last at 24 h [38]: 1.59 h
